Assay results: publication PMC10744032, “Regioselective and Stereoselective Synthesis of Parthenolide Analogs by Acyl Nitroso-Ene Reaction and Their Biological Evaluation against Mycobacterium tuberculosis” (International Journal of Molecular Sciences, 2023)
Values after ≈ are worked out from the molar mass of the structure shown. Read-outs that look alike come from different tables or passages of the source.

Key:
M. tuberculosis H37Rv = test: microbe, parasite or virus in culture; assay type: cell-based, Mycobacterium tuberculosis; settings: Mycobacterium tuberculosis, H37RV, 168 h, 7 days incubation, resazurin readout, tested 300 to 2.3 µM, read-out: MIC90 M. tuberculosis (REMA)
[1] = system: M. tuberculosis H37Rv expressing GFP (H37Rv::pJKD6); test: microbe, parasite or virus in culture; assay type: cell-based, Mycobacterium tuberculosis; settings: Mycobacterium tuberculosis, H37RV, 168 h; read-out: MIC98 M. tuberculosis (GFP)
[2] = Cytotoxicity by live imaging (Hoechst 33342 / propidium iodide); assay type: cell-based; settings: mouse
Description: The cytotoxicity of the compounds to BALB/3T3 cells was determined using live imaging following both Hoechst 33342 and propidium iodide staining. Briefly, BALB/3T3 cells were seeded in a 384-well plate and 24 h later, the compounds were added (0, 12.5, 25, 50, and 100 µM) to the culture medium, as well as Hoechst 33342 and propidium iodide (PI). Then, 24 h and 48 h after the compounds were added, live imaging was performed using an In Cell Analyzer 6000 (STP GE Healthcare, Glascow, UK). The cytotoxicity was defined based on the ratio of the population of dead or dying cells (propidium iodide staining) to the total cell population (Hoechst staining), as determined using Columbus software 2.9.1 (PerkinElmer Informatics, WA, USA). The compounds were tested in triplicate. Carfilzomib (500, 250, 140, and 60 nM) was used as the positive control in this assay.

[3] = Kinetic solubility in PBS by LC-MS/MS; assay type: physicochemical; settings: for solubility at 24 h: kinetic from dmso stock; for fold higher solubility in PBS compared to parthenolide: relative to parthenolide
Description: The kinetic solubility was determined using LC–MS/MS analysis in PBS at pH 7.4. Briefly, a 10 mM 100% DMSO solution of the compound was diluted 50-fold either in PBS at pH 7.4 (in triplicate) or in DMSO in polypropylene tubes (n = 3 for PBS and n = 6 for DMSO). The tubes were gently shaken for 24 h at 21 °C. Then, the three PBS tubes and three of the six DMSO tubes were centrifuged for 5 min at 4000 rpm and filtered over 0.45 μm filters (Millex-LH Millipore). Then, 40 μL of each solution was diluted in 160 μL of MeCN and 40 µL of Milli-Q water and transferred to matrix tubes for the LC–MS/MS analysis. The solubility was determined according to the following formula: Solubility (μM) = (AUC (filtered PBS)/AUC (not filtered DMSO)) × 200. The test was validated if (AUC (not filtered DMSO) − AUC (filtered DMSO))/AUC (not filtered DMSO) ≤ 10%.

[4] = system: Staphylococcus aureus (SH1000); test: microbe, parasite or virus in culture; assay type: cell-based; settings: Staphylococcus aureus; 5 h incubation, resazurin readout; tested 300 to 2.3 µM; read-out: MIC90 S. aureus (REMA)
[5] = BALB/3T3 cells, 0, 12.5, 25, 50, 100 µM, imaging at 24 h and 48 h, read-out: Cytotoxicity Balb3T3 CC50
[6] = aqueous buffer, kinetic solubility, PBS pH 7.4, 24 h at 21 °C, from 10 mM DMSO solution diluted 50-fold, read-out: Solubility

| SMILES | MIC90 (M. tuberculosis H37Rv) [µM] | MIC [1] [µM] | CC50 [2, 5] [µM] | solubility at 24 h [3, 6] [µM] | CC50 [2] [µM] | solubility at 24 h ([3]; 21 °C, pH 7.4, aqueous buffer) [µM] | MIC90 [4] [µM] | fold higher solubility in PBS compared to parthenolide [3] [fold] |
| --- | --- | --- | --- | --- | --- | --- | --- | --- |
| C=C1CC[C@H]2C(=C)C(=O)O[C@@H]2[C@@H]2O[C@]2(C)CC[C@H]1N(O)C(=O)Oc1ccccc1 [Compound 17, Phenyl-N-hydroxy-N-[(1S,2S,4R,7R,11S)-4-methyl-8,12-dimethylene-13-oxo-3,14-dioxatricyclo[9.3.0.02,4]tetradecan-7-yl]carbamate] | 38 (≈ 15.2 µg/mL) | 38 (≈ 15.2 µg/mL) | 12.5 | 189 (≈ 75.5 µg/mL) |  |  |  |  |
| C=C1CC[C@H]2C(=C)C(=O)O[C@@H]2[C@@H]2O[C@]2(C)CC[C@H]1N(O)C(=O)OCCOC [Compound 21, 2-methoxyethyl-N-hydroxy-N-[(1S,2S,4R,7R,11S)-4-methyl-8,12-dimethylene-13-oxo-3,14-dioxatricyclo[9.3.0.02,4]tetradecan-7-yl]carbamate] | 150 (≈ 57.2 µg/mL) | 150 to 300 (≈ 57.2 to 114 µg/mL) |  |  | 100 | > 200 |  |  |
| C=CCOC(=O)N(O)[C@@H]1CC[C@@]2(C)O[C@H]2[C@H]2OC(=O)C(=C)[C@@H]2CCC1=C [Compound 13, Allyl-N-hydroxy-N-[(1S,2S,4R,7R,11S)-4-methyl-8,12-dimethylene-13-oxo-3,14-dioxatricyclo [9.3.0.02,4]tetradecan-7-yl]carbamate] | 38 to 75 (≈ 13.8 to 27.3 µg/mL) | 38 (≈ 13.8 µg/mL) |  |  | > 12.5 | 192 (≈ 69.8 µg/mL) | > 300 |  |
| C=C1CC[C@H]2C(=C)C(=O)O[C@@H]2[C@@H]2O[C@]2(C)CC[C@H]1N(O)C(=O)Oc1ccc2c(c1)OCO2 [Compound 20, 1,3-benzodioxol-5-yl-N-hydroxy-N-[(1S,2S,4R,7R,11S)-4-methyl-8,12-dimethylene-13-oxo-3,14-dioxatricyclo[9.3.0.02,4]tetradecan-7-yl]carbamate] | 75 (≈ 33.3 µg/mL) | 37.5 to 75 (≈ 16.6 to 33.3 µg/mL) | > 12.5 | 182 (≈ 80.7 µg/mL) |  |  |  |  |
| C=C1CC[C@H]2C(=C)C(=O)O[C@@H]2[C@@H]2O[C@]2(C)CC[C@H]1N(O)C(=O)Nc1ccc2c(c1)OCO2 [Compound 10, 3-(1,3-benzodioxol-5-yl)-1-hydroxy-1-[(1S,2S,4R,7R,11S)-4-methyl-8,12-dimethylene-13-oxo-3,14-dioxatricyclo[9.3.0.02,4]tetradecan-7-yl]urea] | 38 (≈ 16.8 µg/mL) | 19 (≈ 8.41 µg/mL) |  |  | 12.5 | 182 (≈ 80.5 µg/mL) |  |  |
| C/C1=C\CC[C@@]2(C)O[C@H]2[C@H]2OC(=O)C(C)[C@@H]2CC1 (stereo partly drawn) [Compound 26, (1S,2S,4R,7E,11S)-4,8,12-trimethyl-3,14-dioxatricyclo[9.3.0.02,4]tetradec-7-en-13-one] | 300 (≈ 75.1 µg/mL) | 300 (≈ 75.1 µg/mL) |  |  |  |  |  |  |
| C=C1CC[C@H]2C(=C)C(=O)O[C@@H]2[C@@H]2O[C@]2(C)CC[C@H]1N(O)C(=O)Nc1ccc(C)cc1 [Compound 5, 1-hydroxy-1-[(1S,2S,4R,7R,11S)-4-methyl-8,12-dimethylene-13-oxo-3,14-dioxatricyclo[9.3.0.02,4]tetradecan-7-yl]-3-(p-tolyl)urea] | 19 to 38 (≈ 7.84 to 15.7 µg/mL) | 19 (≈ 7.84 µg/mL) |  |  | 12.5 | 186 (≈ 76.7 µg/mL) | > 300 |  |
| C=C1CC[C@H]2C(=C)C(=O)O[C@@H]2[C@@H]2O[C@]2(C)CC[C@H]1N(O)C(=O)NCc1ccccc1 [Compound 6, 3-benzyl-1-hydroxy-1-[(1S,2S,4R,7R,11S)-4-methyl-8,12-dimethylene-13-oxo-3,14-dioxatricyclo [9.3.0.02,4]tetradecan-7-yl]urea] | 38 to 75 (≈ 15.7 to 30.9 µg/mL) | 19 to 38 (≈ 7.84 to 15.7 µg/mL) |  |  | > 25 | 196 (≈ 80.8 µg/mL) | > 300 |  |
| CO[C@H]1/C=C/O[C@@]2(C)Oc3c(C)c(O)c4c(O)c(c(/C=N/N5CCN(C)CC5)c(O)c4c3C2=O)NC(=O)/C(C)=C\C=C\[C@H](C)[C@H](O)[C@@H](C)[C@@H](O)[C@@H](C)[C@H](OC(C)=O)[C@@H]1C [Rifampicin, reference compound] | < 2.3 | < 2.3 |  |  |  |  | < 2.3 |  |
| C=C1CC[C@H]2C(=C)C(=O)O[C@@H]2[C@@H]2O[C@]2(C)CC/C1=N/O [Compound 23, (1S,2S,4R,7Z,11S)-7-hydroxyimino-4-methyl-8,12-dimethylene-3,14-dioxatricyclo[9.3.0.02,4] tetradecan-13-one] |  |  |  |  |  | 186 (≈ 51.6 µg/mL) | > 300 |  |
| C=C1CC[C@H]2C(=C)C(=O)O[C@@H]2[C@@H]2O[C@]2(C)CC[C@H]1N(O)C(=O)OC1CCOCC1 [Compound 22, Tetrahydropyran-4-yl-N-hydroxy-N-[(1S,2S,4R,7R,11S)-4-methyl-8,12-dimethylene-13-oxo-3,14-dioxatricyclo[9.3.0.02,4]tetradecan-7-yl]carbamate] | 75 (≈ 30.6 µg/mL) | 38 (≈ 15.5 µg/mL) |  |  | > 50 | 193 (≈ 78.6 µg/mL) |  |  |
| C=C1CC[C@H]2C(=C)C(=O)O[C@@H]2[C@@H]2O[C@]2(C)CC[C@H]1N(O)C(=O)OCc1ccccc1 [Compound 14, Benzyl-N-hydroxy-N-[(1S,2S,4R,7R,11S)-4-methyl-8,12-dimethylene-13-oxo-3,14-dioxatricyclo[9.3.0.02,4]tetradecan-7-yl]carbamate] | 75 (≈ 31 µg/mL) | 38 (≈ 15.7 µg/mL) |  |  | > 12.5 | 191 (≈ 79 µg/mL) | > 300 |  |
| C=C1CC[C@H]2C(=C)C(=O)O[C@@H]2[C@@H]2O[C@]2(C)CC[C@H]1N(O)C(=O)Nc1ccccc1 [Compound 4, 1-hydroxy-1-[(1S,2S,4R,7R,11S)-4-methyl-8,12-dimethylene-13-oxo-3,14-dioxatricyclo[9.3.0.02,4]tetradecan-7-yl]-3-phenyl-urea] | 19 to 38 (≈ 7.57 to 15.1 µg/mL) | 9.4 to 19 (≈ 3.75 to 7.57 µg/mL) |  |  | 25 | 186 (≈ 74.1 µg/mL) | > 300 |  |
| C=C1CC[C@H]2C(=C)C(=O)O[C@@H]2[C@@H]2O[C@]2(C)CC[C@H]1N(O)C(N)=O [Compound 9, 1-hydroxy-1-[(1S,2S,4R,7R,11S)-4-methyl-8,12-dimethylene-13-oxo-3,14-dioxatricyclo[9.3.0.02,4]tetradecan-7-yl]urea] | ~150 (≈ 48.4 µg/mL) | 75 to 150 (≈ 24.2 to 48.4 µg/mL) |  |  | > 100 | > 200 |  | 1.5 |
| C=C1CC[C@H]2C(=C)C(=O)O[C@@H]2[C@@H]2O[C@]2(C)CC[C@H]1N(O)C(=O)OCC(C)C [Compound 18, Isobutyl-N-hydroxy-N-[(1S,2S,4R,7R,11S)-4-methyl-8,12-dimethylene-13-oxo-3,14-dioxatricyclo[9.3.0.02,4]tetradecan-7-yl]carbamate] | 38 (≈ 14.4 µg/mL) | 19 (≈ 7.21 µg/mL) |  |  | 50 | 190 (≈ 72.1 µg/mL) |  |  |
| C=C1CC[C@H]2C(=C)C(=O)O[C@@H]2[C@@H]2O[C@]2(C)CC[C@H]1N(O)C(=O)Nc1ccc(OC)cc1 [Compound 7, 1-hydroxy-3-(4-methoxyphenyl)-1-[(1S,2S,4R,7R,11S)-4-methyl-8,12-dimethylene-13-oxo-3,14-dioxatricyclo[9.3.0.02,4]tetradecan-7-yl]urea] | 19 (≈ 8.14 µg/mL) | 19 (≈ 8.14 µg/mL) |  |  | 25 | 184 (≈ 78.8 µg/mL) |  |  |
| C=C1CC[C@H]2C(=C)C(=O)O[C@@H]2[C@@H]2O[C@]2(C)CC[C@H]1N(O)C(=O)NCCCOCC [Compound 11, 3-(3-ethoxypropyl)-1-hydroxy-1-[(1S,2S,4R,7R,11S)-4-methyl-8,12-dimethylene-13-oxo-3,14-dioxatricyclo[9.3.0.02,4]tetradecan-7-yl]urea] | 150 (≈ 61.3 µg/mL) | 150 (≈ 61.3 µg/mL) |  |  | > 100 | 197 (≈ 80.5 µg/mL) |  |  |
| C=C1CC[C@H]2C(=C)C(=O)O[C@@H]2[C@@H]2O[C@]2(C)CC[C@H]1N(O)C(=O)OCC [Compound 19, Ethyl-N-hydroxy-N-[(1S,2S,4R,7R,11S)-4-methyl-8,12-dimethylene-13-oxo-3,14-dioxatricyclo[9.3.0.02,4]tetradecan-7-yl]carbamate] | 75 (≈ 26.4 µg/mL) | 75 (≈ 26.4 µg/mL) |  |  | > 12.5 | 198 (≈ 69.6 µg/mL) |  |  |
| C=C1CC[C@H]2C(=C)C(=O)O[C@@H]2[C@@H]2O[C@]2(C)CC[C@H]1N(O)C(=O)Nc1ccc(F)cc1 [Compound 8, 3-(4-fluorophenyl)-1-hydroxy-1-[(1S,2S,4R,7R,11S)-4-methyl-8,12-dimethylene-13-oxo-3,14-dioxatricyclo[9.3.0.02,4]tetradecan-7-yl]urea] | 19 (≈ 7.91 µg/mL) | 19 (≈ 7.91 µg/mL) |  |  | > 25 | 188 (≈ 78.3 µg/mL) |  | 1.3 |
